Source: the supplement of paper PMC11562712
Structures can show the parent of a compound that is named as a salt.

Experiment: first-order primary biodegradation rate constant k (sorption-corrected, fDis-corrected) (d-1); higher = faster biodegradation
Procedure: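 Modified OECD 309 water-sediment test. River water plus sieved sediment (50 g wet solid/L) from European river segments (DE, CH, ES, EL) was spiked with a mixture of 129 compounds at 1 ug/L each and incubated in the dark at river temperature for 10 days. The water phase was analysed by UHPLC-Orbitrap-MS. The first-order primary biodegradation rate constant k (d-1) is k_observed, corrected for dissipation in sterile sorption controls and divided by the dissolved fraction fDis; it was fitted over 3 replicate incubations. Invalid fits (p > 0.05, n < 5, not available, concentration increase) are excluded.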

[1] = river segment: Germany (DE) H_Contam, incubation temperature 24 °C
[2] = river segment: Germany (DE) T_Pris, incubation temperature 24 °C
[3] = river segment: Greece (EL) A_Contam, incubation temperature 19 °C
[4] = river segment: Greece (EL) G_Contam, incubation temperature 19 °C
[5] = river segment: Greece (EL) G_Pris, incubation temperature 19 °C
[6] = river segment: Greece (EL) L_Contam, incubation temperature 19 °C
[7] = river segment: Spain (ES) B_Contam, incubation temperature 24 °C
[8] = river segment: Spain (ES) C_Contam, incubation temperature 24 °C
[9] = river segment: Spain (ES) F_Pris_Salt, incubation temperature 24 °C
[10] = river segment: Spain (ES) L_Contam, incubation temperature 24 °C
[11] = river segment: Switzerland (CH) C_Contam, incubation temperature 17 °C
[12] = river segment: Switzerland (CH) R_Contam, incubation temperature 17 °C
[13] = river segment: Switzerland (CH) U_Contam, incubation temperature 17 °C
[14] = river segment: Switzerland (CH) U_Pris, incubation temperature 17 °C
[15] = river segment: Germany (DE) T_Contam, incubation temperature 24 °C

COc1cc(Cc2cnc(N)nc2N)cc(OC)c1OC [Trimethoprim]
first-order primary biodegradation rate constant k [1]: 0.173
first-order primary biodegradation rate constant k [2]: 0.612
first-order primary biodegradation rate constant k [3]: 0.431
first-order primary biodegradation rate constant k [4]: 0.993
first-order primary biodegradation rate constant k [5]: 0.704
first-order primary biodegradation rate constant k [6]: 1.57
first-order primary biodegradation rate constant k [7]: 0.192
first-order primary biodegradation rate constant k [8]: 0.383
first-order primary biodegradation rate constant k [9]: 0.726
first-order primary biodegradation rate constant k [10]: 0.758
first-order primary biodegradation rate constant k [11]: 1.11
first-order primary biodegradation rate constant k [12]: 1.65
first-order primary biodegradation rate constant k [13]: 2.23
first-order primary biodegradation rate constant k [14]: 2.52

CCCCC(=O)N(Cc1ccc(-c2ccccc2-c2nnn[nH]2)cc1)[C@H](C(=O)O)C(C)C [Valsartan]
first-order primary biodegradation rate constant k [1]: 0.469
first-order primary biodegradation rate constant k [15]: 0.54
first-order primary biodegradation rate constant k [2]: 0.204
first-order primary biodegradation rate constant k [3]: 0.42
first-order primary biodegradation rate constant k [4]: 0.418
first-order primary biodegradation rate constant k [5]: 0.275
first-order primary biodegradation rate constant k [8]: 0.194
first-order primary biodegradation rate constant k [9]: 0.0324
first-order primary biodegradation rate constant k [10]: 0.374
first-order primary biodegradation rate constant k [11]: 0.186
first-order primary biodegradation rate constant k [12]: 0.52
first-order primary biodegradation rate constant k [13]: 0.556
first-order primary biodegradation rate constant k [14]: 0.429

NS(=O)(=O)c1cc2c(cc1Cl)N=CNS2(=O)=O [Chlorothiazide]
first-order primary biodegradation rate constant k [15]: 0.0266
first-order primary biodegradation rate constant k [9]: 0.166

CCNc1nc(Cl)nc(NC(C)C)n1 [Atrazine]
first-order primary biodegradation rate constant k [1]: 0.0725
first-order primary biodegradation rate constant k [15]: 0.136
first-order primary biodegradation rate constant k [2]: 0.025
first-order primary biodegradation rate constant k [3]: 0.0312
first-order primary biodegradation rate constant k [7]: 0.103
first-order primary biodegradation rate constant k [8]: 0.0247
first-order primary biodegradation rate constant k [10]: 0.451
first-order primary biodegradation rate constant k [11]: 0.0513
first-order primary biodegradation rate constant k [13]: 0.0313
first-order primary biodegradation rate constant k [14]: 0.0218

O=[N+]([O-])c1ccc(Cc2ccncc2)cc1 [4-(4-Nitrobenzyl)pyridine]
first-order primary biodegradation rate constant k [1]: 0.499
first-order primary biodegradation rate constant k [15]: 1.05
first-order primary biodegradation rate constant k [2]: 0.446
first-order primary biodegradation rate constant k [3]: 1.09
first-order primary biodegradation rate constant k [4]: 1.68
first-order primary biodegradation rate constant k [6]: 1.94
first-order primary biodegradation rate constant k [7]: 0.863
first-order primary biodegradation rate constant k [8]: 0.301
first-order primary biodegradation rate constant k [9]: 0.146
first-order primary biodegradation rate constant k [10]: 1.1
first-order primary biodegradation rate constant k [11]: 0.314
first-order primary biodegradation rate constant k [12]: 0.45
first-order primary biodegradation rate constant k [13]: 1.95
first-order primary biodegradation rate constant k [14]: 2.28

O=C(O)Cc1ccccc1Nc1c(Cl)cccc1Cl [Diclofenac]
first-order primary biodegradation rate constant k [1]: 0.137
first-order primary biodegradation rate constant k [15]: 0.18
first-order primary biodegradation rate constant k [3]: 0.0748
first-order primary biodegradation rate constant k [6]: 0.0701
first-order primary biodegradation rate constant k [7]: 0.574
first-order primary biodegradation rate constant k [8]: 0.074
first-order primary biodegradation rate constant k [9]: 0.0381
first-order primary biodegradation rate constant k [10]: 0.158

CCOC(=O)CC(O)(CC(=O)OCC)C(=O)OCC [Triethyl citrate]
first-order primary biodegradation rate constant k [15]: 0.275
first-order primary biodegradation rate constant k [2]: 0.0369
first-order primary biodegradation rate constant k [10]: 0.339
first-order primary biodegradation rate constant k [11]: 0.00672
first-order primary biodegradation rate constant k [12]: 0.0597
first-order primary biodegradation rate constant k [13]: 0.127
first-order primary biodegradation rate constant k [14]: 0.0638

CCc1cccc(C)c1N(C(=O)CCl)C(C)COC (stereo not given) [Metolachlor]
first-order primary biodegradation rate constant k [15]: 0.0409
first-order primary biodegradation rate constant k [7]: 0.0124
first-order primary biodegradation rate constant k [8]: 0.0203
first-order primary biodegradation rate constant k [10]: 0.167
first-order primary biodegradation rate constant k [11]: 0.0161
first-order primary biodegradation rate constant k [13]: 0.0398
first-order primary biodegradation rate constant k [14]: 0.0285
